Test results reported in PubChem BioAssay AID806 (SRMLSC, 2007).
Calls of active or inactive are those of the source. The rule behind the calls is not given here.

System: virus-infected cells, CPE inhibition, dose response
Assay: PubChem AID 806
Conditions: for EC90: measured here: EC90 CPE inhibition; for CC50: measured here: cytotoxicity, cell viability IC50

CC(=O)c1cccc(NC(=O)CCS(=O)(=O)c2cccc3nsnc23)c1
EC50: > 60 µM (inactive) | EC90: > 60 µM | CC50: > 60 µM

Cc1cccc(NC(=O)c2cc3ccccc3o2)c1
EC50: > 60 µM (inactive) | EC90: > 60 µM | CC50: > 60 µM

O=C(NC1CCS(=O)(=O)C1)C1CCCCN1S(=O)(=O)c1ccc(Cl)cc1 (stereo unspecified)
EC50: > 60 µM (inactive) | EC90: > 60 µM | CC50: > 60 µM

CC1CC(=O)C2=C(C1)Nc1ccccc1N(C(=O)COc1ccccc1)C2c1ccco1 (stereo unspecified)
EC50: > 60 µM (inactive) | EC90: > 60 µM | CC50: > 60 µM

Cc1sc2nc3c4ccccc4c(NCc4ccco4)nn3c(=O)c2c1C
EC50: > 60 µM (inactive) | EC90: > 60 µM | CC50: 4.2 µM

O=C(Nc1ccc2nc3n(c(=O)c2c1)CCCCC3)c1ccccc1Cl
EC50: > 60 µM (inactive) | EC90: > 60 µM | CC50: > 60 µM

COc1ccc(NC(=O)C2CC(=O)OC23CCOC(C)(C)C3)cc1 (stereo unspecified)
EC50: > 60 µM (inactive) | EC90: > 60 µM | CC50: > 60 µM

Nc1c(C(=O)Nc2ccc(Cl)cc2)oc2ccccc12
EC50: > 60 µM (inactive) | EC90: > 60 µM | CC50: > 60 µM

Cc1cc(NC(=O)CSc2nnc(CNc3ccc(F)cc3)n2C2CCCCC2)no1
EC50: 61.8 µM (inactive) | EC90: > 60 µM | CC50: > 60 µM

O=C(CCS(=O)(=O)c1cccc2nsnc12)NCc1ccccc1Cl
EC50: > 60 µM (inactive) | EC90: > 60 µM | CC50: > 60 µM

Clc1cccc(Nc2ncnc3c2cnn3-c2ccccc2)c1
EC50: > 60 µM (inactive) | EC90: > 60 µM | CC50: > 60 µM

O=C(Nc1ccccc1)c1cc2ccccc2o1
EC50: > 60 µM (inactive) | EC90: > 60 µM | CC50: > 60 µM

Cc1ccc(S(=O)(=O)N2CCCCC2C(=O)NCc2ccco2)cc1 (stereo unspecified)
EC50: > 60 µM (inactive) | EC90: > 60 µM | CC50: > 60 µM

CN1c2ccsc2C(O)=C(C(=S)Nc2ccccc2)S1(=O)=O
EC50: > 60 µM (inactive) | EC90: > 60 µM | CC50: > 60 µM

Cc1cc2oc(C(=O)Nc3cccnc3)c(C)c2cc1C
EC50: > 60 µM (inactive) | EC90: > 60 µM | CC50: > 60 µM

CCOc1ccccc1NC(=O)c1ccc(NC(=O)c2ccco2)cc1
EC50: > 60 µM (inactive) | EC90: > 60 µM | CC50: > 60 µM

CSc1nnc(-c2ccccc2Cl)o1
EC50: > 60 µM (inactive) | EC90: > 60 µM | CC50: > 60 µM

O=C(c1cc(-c2ccc(Cl)cc2)n(-c2ccc(Cl)c(Cl)c2)n1)N1CCOCC1
EC50: > 60 µM (inactive) | EC90: > 60 µM | CC50: 3.62 µM

CCS(=O)(=O)Nc1cc(-c2nc3cccnc3s2)ccc1C
EC50: > 60 µM (inactive) | EC90: > 60 µM | CC50: > 60 µM

COc1ccc(C)cc1NC(=O)C1CC(=O)OC12CCCCC2 (stereo unspecified)
EC50: > 60 µM (inactive) | EC90: > 60 µM | CC50: > 60 µM

CCc1ccc(NC(=O)CCS(=O)(=O)c2cccc3nsnc23)cc1
EC50: > 60 µM (inactive) | EC90: > 60 µM | CC50: > 60 µM

CCN(c1ccccc1)c1ncnc2c1cnn2-c1ccccc1
EC50: > 60 µM (inactive) | EC90: > 60 µM | CC50: > 60 µM

CN1c2ccsc2C(O)=C(C(=O)Nc2ccccc2)S1(=O)=O
EC50: > 60 µM (inactive) | EC90: > 60 µM | CC50: > 60 µM

CCN(CC)S(=O)(=O)c1ccc(C(=O)NCc2ccc(C)cc2)cc1
EC50: > 60 µM (inactive) | EC90: > 60 µM | CC50: > 60 µM

O=C(c1cc(-c2ccc(Cl)cc2)n(-c2ccc(Cl)cc2)n1)N1CCOCC1
EC50: > 60 µM (inactive) | EC90: > 60 µM | CC50: 4.34 µM

COC(=O)Nc1ccc(S(=O)(=O)N2CCCCC2C(=O)NCc2ccco2)cc1 (stereo unspecified)
EC50: > 60 µM (inactive) | EC90: > 60 µM | CC50: > 60 µM

Cc1ccc(NC(=S)C2=C(O)c3sccc3N(C)S2(=O)=O)cc1
EC50: 30.3 µM (inactive) | EC90: > 60 µM | CC50: > 60 µM
